According to patent publication US20230127944A1, “BROAD-SPECTRUM CARBAPENEMS” (priority 2019, published 2023):
Converted amounts (≈) assume the structure as drawn.

Legend:
Type in all cases: cell-based
[1] = system: P. aeruginosa ΔmexAB-OprM (an efflux pump knockout); experiment: broth microdilution MIC assay, P. aeruginosa ΔmexAB-OprM; conditions: Pseudomonas aeruginosa, read-out: MIC, P. aeruginosa ΔmexAB-OprM
Method: (§1) To determine the ability of test compounds to inhibit the growth of bacterial strains, classic cell-based broth microdilution MIC assays were employed. MIC assays are performed according to CLSI methods except where otherwise noted (CLSI, 2011 and CLSI, 2009). The reference strains S. aureus ATCC 29213 (methicillin sensitive), S. aureus ATCC 33591 (methicillin-resistant), E. coli ATCC 25922 (wild-type/QC strain), P. aeruginosa ATCC 27853 (wild-type/QC strain), and the clinical isolate P. aeruginosa PA 8 were used to determine the ability of the exemplary carbapenem compounds to inhibit bacterial growth. An expanded panel of methicillin resistance S. aureus (MRSA) and Pseudomonas was also used to determine the ability of exemplary carbapenem compounds to inhibit bacterial growth across a broader representation of those species. To determine activity in MRSA and in addition to S. aureus ATCC 33591, S. aureus USA 300 and USA 600, some of the most common clones found to cause human infection, were also used. To further gauge the impact on the carbapenem compounds due to various resistance mechanisms in Pseudomonas, the following strains were included: P. aeruginosa 35151 (hyper-permeable strain), P. aeruginosa ΔmexAB-OprM (an efflux pump knockout), and P. aeruginosa Paβ-173 (a clinical isolate of reduced carbapenem susceptibility). Briefly, cryo-preserved bacterial cultures of clinical strains are streaked for isolation on appropriate agar medium, in this case Mueller Hinton II agar. Following incubation to allow formation of colonies, these plates are sealed with parafilm and stored refrigerated for up to two weeks. For preparation of assay inocula and to ensure low variability, at least 5 colonies are picked from the agar plates with an inoculating loop and aseptically transferred to a culture tube containing 3 mL of Mueller-Hinton Broth (supplemented with divalent cations to required levels based on Manufacturers' specification). The broth culture is grown for 3-5 hours at 37° C. with shaking at 200 rpm. Meanwhile, 2-fold serial dilutions of test compounds are conducted in a 96 well plate with a final volume of 75 μL per well at 2-fold the final desired concentration. After the dilution plates are set up the growing cultures are then diluted in a cuvette containing MH II broth and the optical density is measured at 600 nm. Inocula are diluted such that 75 μL of this culture in Mueller-Hinton Broth results in a starting bacterial concentration of 5×10^5 CFU/mL when added to the dilution plates. The plates are incubated 16-20 hours at 37° C. The MIC is read visually as the lowest concentration well with no bacterial growth.

P. aeruginosa Paeβ-17 = experiment: broth microdilution MIC assay, P. aeruginosa Paeβ-17; conditions: Pseudomonas aeruginosa, read-out: MIC, P. aeruginosa Paeβ-17
Method: as §1

[2] = system: P. aeruginosa 35151 (hyper-permeable strain); experiment: broth microdilution MIC assay, P. aeruginosa 35151; conditions: Pseudomonas aeruginosa, read-out: MIC, P. aeruginosa 35151
Method: as §1

[3] = system: P. aeruginosa ATCC 27853 (wild-type/QC strain); experiment: broth microdilution MIC assay, P. aeruginosa 27853; conditions: Pseudomonas aeruginosa, ATCC27853; read-out: MIC, P. aeruginosa 27853
Method: as §1

[4] = system: E. coli ATCC 25922 (wild-type/QC strain); experiment: broth microdilution MIC assay, E. coli 25922; conditions: Escherichia coli, ATCC25922; read-out: MIC, E. coli 25922
Method: as §1

[5] = system: S. aureus ATCC 33591 (methicillin-resistant); experiment: broth microdilution MIC assay, S. aureus 33591; conditions: Staphylococcus aureus, ATCC33591; S. aureus 33591, methicillin-resistant; read-out: MIC, S. aureus 33591
Method: as §1

S. aureus USA 300 = experiment: broth microdilution MIC assay, S. aureus USA300; conditions: Staphylococcus aureus; S. aureus USA300 (MRSA); read-out: MIC, S. aureus USA300
Method: as §1

S. aureus USA 600 = experiment: broth microdilution MIC assay, S. aureus USA600; conditions: Staphylococcus aureus; S. aureus USA600 (MRSA); read-out: MIC, S. aureus USA600
Method: as §1

Structure (SMILES) | MIC [1] [µg/mL] | MIC (P. aeruginosa Paeβ-17) [µg/mL] | MIC [2] [µg/mL] | MIC [3] [µg/mL] | MIC [4] [µg/mL] | MIC [5] [µg/mL] | MIC (S. aureus USA 300) [µg/mL] | MIC (S. aureus USA 600) [µg/mL]
C[C@@H](O)[C@H]1C(=O)N2C(C(=O)O)=C(S[C@@H]3CCN(Cc4ccc(N)nc4)C3)[C@H](C)[C@H]12 [Example 25, (4R,5S,6S)-3-(((R)-1-((6-aminopyridin-3-yl)methyl)pyrrolidin-3-yl)thio)-6-((R)-1-hydroxyethyl)-4-methyl-7-oxo-1-azabicyclo[3.2.0]hept-2-ene-2-carboxylic acid] | 1 to 4 (≈ 2.39 to 9.56 µM) | > 32 | < 1 | 8 to 32 (≈ 19.1 to 76.5 µM) | < 1 | 8 to 32 (≈ 19.1 to 76.5 µM) | 1 to 4 (≈ 2.39 to 9.56 µM) | 1 to 4 (≈ 2.39 to 9.56 µM)
C[C@@H](O)[C@H]1C(=O)N2C(C(=O)O)=C(SC3CN(CC4CCN(C(=N)N)CC4)C3)[C@H](C)[C@H]12 [Example 26, (4R,5S,6S)-3-((1-((1-carbamimidoylpiperidin-4-yl)methyl)azetidin-3-yl)thio)-6-((R)-1-hydroxyethyl)-4-methyl-7-oxo-1-azabicyclo[3.2.0]hept-2-ene-2-carboxylic acid] | < 1 | 8 to 32 (≈ 18.3 to 73.1 µM) | < 1 | 1 to 4 (≈ 2.29 to 9.14 µM) | < 1 | 1 to 4 (≈ 2.29 to 9.14 µM) | 1 to 4 (≈ 2.29 to 9.14 µM) | 1 to 4 (≈ 2.29 to 9.14 µM)
C[C@@H](O)[C@H]1C(=O)N2C(C(=O)O)=C(S[C@@H]3CCN([C@H]4CC[C@H](NC(=N)N)CC4)C3)[C@H](C)[C@H]12 [Example 27, (4R,5S,6S)-3-(((R)-1-((1R,4R)-4-guanidinocyclohexyl)pyrrolidin-3-yl)thio)-6-((R)-1-hydroxyethyl)-4-methyl-7-oxo-1-azabicyclo[3.2.0]hept-2-ene-2-carboxylic acid] | 1 to 4 (≈ 2.21 to 8.86 µM) | 8 to 32 (≈ 17.7 to 70.9 µM) | < 1 | 8 to 32 (≈ 17.7 to 70.9 µM) | < 1 | 1 to 4 (≈ 2.21 to 8.86 µM) | 1 to 4 (≈ 2.21 to 8.86 µM) | 1 to 4 (≈ 2.21 to 8.86 µM)
C[C@@H](O)[C@H]1C(=O)N2C(C(=O)O)=C(S[C@@H]3CCN(C4CCN(C)CC4)C3)[C@H](C)[C@H]12 [Example 29, (4R,5S,6S)-6-((R)-1-hydroxyethyl)-4-methyl-3-(((R)-1-(1-methylpiperidin-4-yl)pyrrolidin-3-yl)thio)-7-oxo-1-azabicyclo[3.2.0]hept-2-ene-2-carboxylic acid] | 1 to 4 (≈ 2.44 to 9.77 µM) | 8 to 32 (≈ 19.5 to 78.1 µM) | < 1 | 8 to 32 (≈ 19.5 to 78.1 µM) | < 1 | 8 to 32 (≈ 19.5 to 78.1 µM) | 1 to 4 (≈ 2.44 to 9.77 µM) | 1 to 4 (≈ 2.44 to 9.77 µM)
C[C@@H](O)[C@H]1C(=O)N2C(C(=O)O)=C(S[C@@H]3CCN([C@@H]4CC[C@@H](NC(=N)N)C4)C3)[C@H](C)[C@H]12 [Example 30, (4R,5S,6S)-3-(((R)-1-((1R,3R)-3-guanidinocyclopentyl)pyrrolidin-3-yl)thio)-6-((R)-1-hydroxyethyl)-4-methyl-7-oxo-1-azabicyclo[3.2.0]hept-2-ene-2-carboxylic acid] | 1 to 4 (≈ 2.29 to 9.14 µM) | > 32 | 1 to 4 (≈ 2.29 to 9.14 µM) | 8 to 32 (≈ 18.3 to 73.1 µM) | < 1 | 8 to 32 (≈ 18.3 to 73.1 µM) | 1 to 4 (≈ 2.29 to 9.14 µM) | 1 to 4 (≈ 2.29 to 9.14 µM)
C[C@@H](O)[C@H]1C(=O)N2C(C(=O)O)=C(S[C@@H]3CCN([C@H]4CC[C@@H](NC(=N)N)C4)C3)[C@H](C)[C@H]12 [Example 31, (4R,5S,6S)-3-(((R)-1-((1S,3R)-3-guanidinocyclopentyl)pyrrolidin-3-yl)thio)-6-((R)-1-hydroxyethyl)-4-methyl-7-oxo-1-azabicyclo[3.2.0]hept-2-ene-2-carboxylic acid] | < 1 | 8 to 32 (≈ 18.3 to 73.1 µM) | < 1 | 1 to 4 (≈ 2.29 to 9.14 µM) | < 1 | 1 to 4 (≈ 2.29 to 9.14 µM) | < 1 | 1 to 4 (≈ 2.29 to 9.14 µM)
C[C@@H](O)[C@H]1C(=O)N2C(C(=O)O)=C(SC3CN(C[C@H]4CCCN4)C3)[C@H](C)[C@H]12 [Example 32, (4R,5S,6S)-6-((R)-1-hydroxyethyl)-4-methyl-7-oxo-3-((1-(((R)-pyrrolidin-2-yl)methyl)azetidin-3-yl)thio)-1-azabicyclo[3.2.0]hept-2-ene-2-carboxylic acid] | 1 to 4 (≈ 2.62 to 10.5 µM) | 8 to 32 (≈ 21 to 83.9 µM) | < 1 | 8 to 32 (≈ 21 to 83.9 µM) | < 1 | 8 to 32 (≈ 21 to 83.9 µM) | 1 to 4 (≈ 2.62 to 10.5 µM) | 1 to 4 (≈ 2.62 to 10.5 µM)
